Laboratory results reported in patent US5968751A, “Method for detecting the presence of protein C antibody in a fluid sample” (The Scripps Research Institute, priority 1997, dated 1999).
Read-outs that look alike come from different tables or passages of the source. No end group written: not given here.

Assays:
Type in all cases: biochemical
[1] = target: T1, Factor Xa (Homo sapiens, UniProt P00742); experiment: Factor Xa clotting activity in NHP without added APC (Factor Xa-1 Stage clotting assay); settings: for IC50: read-out: 50% inhibition of Factor Xa clotting activity
T1 construct: purchased Enzyme Research Laboratories, Southbend, Ind
T1 sequence (P00742 41-179 limits assumed): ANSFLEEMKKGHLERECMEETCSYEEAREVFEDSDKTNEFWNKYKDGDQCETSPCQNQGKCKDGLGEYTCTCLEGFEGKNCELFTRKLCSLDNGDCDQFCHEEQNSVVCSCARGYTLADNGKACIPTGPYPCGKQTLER
T1 sequence (P00742 235-488 limits assumed): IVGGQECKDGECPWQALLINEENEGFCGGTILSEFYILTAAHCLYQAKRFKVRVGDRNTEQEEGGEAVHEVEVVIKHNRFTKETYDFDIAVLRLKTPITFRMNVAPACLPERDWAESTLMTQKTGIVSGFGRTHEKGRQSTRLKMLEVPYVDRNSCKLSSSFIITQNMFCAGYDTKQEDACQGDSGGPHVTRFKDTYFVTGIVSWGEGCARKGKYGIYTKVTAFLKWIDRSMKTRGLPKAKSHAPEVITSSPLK
Description: FIG. 1 illustrates factor Xa clotting activity in the presence of PC311-325. The assay was performed as described in Example 5a6). Solid circles with solid lines depict factor Xa activity of 0.15 nM factor Xa in the presence of PC311-325 and solid triangles with dashed lines depict factor Xa activity in the presence of the control peptide.
FIG. 2 illustrates factor Xa clotting activity in the presence of PC142-155. The assay was performed as described in Example 5a6). Solid circles with solid lines depict factor Xa activity of 0.15 nM factor Xa in NHP in the presence of PC142-155 and solid triangles with dashed lines depict factor Xa activity in the presence of the scrambled peptide.
(§1) To determine the effect of the APC-inhibiting peptides, PC311-325 and PC142-155, on the amidolytic activity of Factor Xa, amidolytic assays as described for APC in Example 5a3 were performed using 0.15 nM Factor Xa in the presence of increasing amounts of peptide. Peptide PC311-325 ranged in concentration from 0 to 100 μM whereas peptide PC142-155 ranged in concentration from 0 to 50 μM.
(§2) For the assay, 100 μl of 0.15 nM factor Xa, prepared in Example 5a5) were admixed with separate aliquots of either peptide prepared in TBS-BSA at pH 7.4 containing 0.02% NaN3 and 2 mM CaCl2 to form APC-peptide admixtures. After maintenance of the admixtures for 30 minutes at 37° C., 50 μl of 2.4 mM S-2222 in the same buffer were admixed to initiate the amidolytic reaction. The hydrolysis of the substrate was measured as described before.
The Factor Xa-1 Stage assay was conducted as described in Example 5a6). In that assay, the IC50 for peptides PT557-571. PT463-478, PT473-487, PT481-495, X404-418, X415-429 and X329-344 were 50, >500, 25, >500, 50, 115, and 500, respectively.

[2] = tested on: prothrombinase; experiment: prothrombinase assay with purified proteins; settings: for inhibition of prothrombinase activity in the absence of Factor Va: up to 200 μM PC311-325, up to 250 μM PC142-155
Description: FIG. 3 illustrates prothrombinase activity in the presence of PC311-325. The assay was performed using 1 nM factor Xa, 0.4 nM factor Va, 1.2 μM prothrombin and […] factor Xa in the absence of factor Va in TBS-BSA, 2.5 mM CaCl2, pH 7.4. Unless otherwise specified all prothrombinase assays were carried out in the presence of 50 μM phospholipid vesicles. In all cases solid symbols indicate prothrombinase activity in the presence of factor Va whereas open symbols indicate prothrombinase activity in the […] of factor Va. Solid circles with solid lines indicate prothrombinase activity (with factor Va) in the presence of PC311-325, solid squares with solid lines indicate prothrombinase activity (with factor Va) in the presence of PC311-325 but in the absence of phospholipid vesicles and solid triangles with dashed lines indicate prothrombinase activity (with factor Va) in the presence of the control peptide. Open circles with solid lines denote prothrombinase activity (without factor Va) in the presence of PC311-325 and open triangles with dashed lines denote prothrombinase activity (without factor Va) in the presence of the control peptide.
FIG. 4 illustrates prothrombinase activity in the presence of PC142-155. The assay was performed using 1 nM factor Xa, 0.4 nM factor Va, 1.2 μM prothrombin and 2.5 nM factor Xa in the absence of factor Va in TSB-BSA, 2.5 mM CaCl2, 50 μM phospholipid vesicles, pH 7.4. In all cases solid symbols indicate prothrombinase activity in the […] of factor Va. Solid circles with solid lines indicate prothrombinase activity (with factor Va) in the presence of PC142-155 and solid triangles with dashed lines indicate prothrombinase activity (with factor Va) in the presence of the scrambled peptide. Open circles with solid lines denote prothrombinase activity (without factor Va) in the presence of PC142-155 and open triangles with dashed lines denote prothrombinase activity (without factor Va) in the presence of the scrambled peptide.
Factor Va was determined via its cofactor activity in the activation of prothrombin by Factor Xa. Amounts of Factor Xa (Enzyme Research Lab.), phospholipid vesicles and prothrombin (purified as described by Stenflo, J. Biol. Chem., 25:355-363, (1976) from a barium citrate plasma precipitate purified by DEAE-sephadex chromatography) present in the assay were such that the rate of prothrombin activation was linearly dependent on factor Va and constant over the time course of the experiment. The molar concentration of Factor Xa was determined by active site titration as described by Chase et al., Biochem. Biophys. Res. Commun., 29:508-514 (1967). The molecular weights and extinction coefficients (E280 nm/mg/ml) used in the calculation of protein concentrations were as follows: prothrombin, 72,000 and 1.44; APC, 62,000 and 1.45; and Factor X, 65,300 and 1.16.
In a typical experiment, Factor Va was assayed as follows. An aliquot of the solution containing Va was admixed to a solution containing prothrombin, phospholipids and calcium in individual wells of a 96-well microtiter plate. Prothrombin activation was initiated with the mixture of Factor Xa to the Va-containing wells to form a reaction admixture. Final concentrations of reagents in the reaction mixture were the following: 1.2 μM prothrombin, 1 nM Xa, 0-0.4 nM Va, 50 μM phospholipid-vesicles (phosphatidylserine 20%/phosphatidylcholine 80%; M/M), in 0.05 M Tris-HCl at pH 7.4 containing 0.1 M NaCl, 0.5% BSA and 2.0 mM CaCl2. The reaction was maintained at 22° C. At one minute time intervals from initiation of the reaction, 20 μl aliquots of the reaction admixture were withdrawn and admixed to wells of an ELISA plate containing 80 μl TBS-BSA and 10 mM EDTA at pH 8.0 resulting in the quenching of the prothrombinase reaction. […]

[3] = target: T1, Factor Xa; experiment: Factor Xa amidolytic activity towards chromogenic substrates
Description: as §1, §2

[4] = target: T2, thrombin (Homo sapiens, UniProt P00734); experiment: clotting of purified fibrinogen by thrombin
[5] = target: T2, thrombin; experiment: thrombin amidolytic activity towards chromogenic substrates
[6] = NHP, 0.15 nM factor Xa, no added APC

Compound	inhibition of Factor Xa activity ([1]; 100 μM peptide, NHP)	inhibition of prothrombinase activity in the presence of Factor Va [2]	inhibition of prothrombinase activity in the absence of Factor Va [2]	inhibition of Factor Xa activity ([1]; 50 μM peptide, NHP)	inhibition of Factor Xa activity ([1]; 50 μM peptide, NHP, listed as scrambled control peptide)	effect on Factor Xa amidolytic activity towards chromogenic substrates [3]	effect on the clotting of purified fibrinogen by thrombin [4]	inhibition of prothrombinase activity ([2]; 100 μM peptide, presence of Factor Va)	effect on thrombin amidolytic activity towards chromogenic substrates [5]	IC50 [1, 6]	IC50 ([1]; clotting assays in plasma)	IC50 ([2]; presence of Factor Va, read-out: 50% inhibition of prothrombinase activity)
VKFTIRVFNPRNLKI [Control Peptide, reference compound]	30%	very little if any significant inhibition	very little if any significant inhibition	–	–	–	–	–	–	–	–	–
MHKLREGKWRPKSR [Scrambled peptide, reference compound]	–	small amount of inhibition	–	40%	37%	no significant effect	no effect	40%	no significant effect	–	–	–
CSCC[C@H](NC(=O)[C@H](CCCNC(=N)N)NC(=O)[C@H](CCCCN)NC(=O)[C@H](Cc1c[nH]c2ccccc12)NC(=O)[C@@H]1CCCN1C(=O)[C@H](CCCNC(=N)N)NC(=O)CN)C(=O)N[C@@H](CCC(=O)O)C(=O)N[C@@H](CCCCN)C(=O)N[C@@H](CCCCN)C(=O)N[C@@H](CCCNC(=N)N)C(=O)N[C@@H](CO)C(=O)N[C@@H](Cc1c[nH]cn1)C(=O)N[C@@H](CC(C)C)C(=O)N[C@@H](CS)C(N)=O [PC142-155, Gly-Arg-Pro-Trp-Lys-Arg-Met-Glu-Lys-Lys-Arg-Ser-His-Leu]	–	–	–	–	–	–	–	–	–	10 µM	5 µM	–
KRNRTFVLNFIKIPV-NH2 [PC311-325, Lys-Arg-Asn-Arg-Thr-Phe-Val-Leu-Asn-Phe-Ile-Lys-Ile-Pro-Val]	–	–	very little if any significant inhibition	–	–	no significant effect	no effect	–	no significant effect	7 µM	–	8 µM
